Values joined by “and” are separate entries in the source; they are usually repeats but may differ in a detail not shown here. Equal entries are not always repeated. Where two headings read alike, the source gives them in different places.

The target in one assay is T1, D2 (Homo sapiens, UniProt P14416).
T1 construct: NIMH Psychoactive Drug Screening Program (PDSP)
The assay can be described thus: PDSP binding assay, D2. The note with it: Table S2, single determination. The source says: (§1) Table S2. Off-target screening (to replace table later). We thank Dr. Bryan L. Roth (Univ. North Carolina at Chapel Hill) and National Institute of Mental Health's Psychoactive Drug Screening Program (Contract # HHSN-271-2008-00025-C) for screening data. Reference: Besnard et al.
(§2) Procedures: https://pdsp.unc.edu/pdspweb/content/UNC-CH%20Protocol%20Book.pdf […]
(§3) nucleosides were found at the following sites (human unless noted): 5HT1A, 5HT1B, 5HT1D, […]
(§4) β3, BZP rat brain site, D1, D2, D3, D4, D5, GABAA, H1, H2, H3, H4, M1, M2, M5, δ-opioid receptor (DOR), κ-opioid receptor (KOR), μ-opioid receptor (MOR), σ1, σ2, DAT, NET, SERT. Ki values […]
(§5) Compound # PDSP # Receptor LogKi Ki (nM)

For a further assay, the target named is T2, hP2Y14R (Homo sapiens, UniProt Q15391).
T2 construct: expressed in transfected cells
T2 sequence (Q15391 1-338): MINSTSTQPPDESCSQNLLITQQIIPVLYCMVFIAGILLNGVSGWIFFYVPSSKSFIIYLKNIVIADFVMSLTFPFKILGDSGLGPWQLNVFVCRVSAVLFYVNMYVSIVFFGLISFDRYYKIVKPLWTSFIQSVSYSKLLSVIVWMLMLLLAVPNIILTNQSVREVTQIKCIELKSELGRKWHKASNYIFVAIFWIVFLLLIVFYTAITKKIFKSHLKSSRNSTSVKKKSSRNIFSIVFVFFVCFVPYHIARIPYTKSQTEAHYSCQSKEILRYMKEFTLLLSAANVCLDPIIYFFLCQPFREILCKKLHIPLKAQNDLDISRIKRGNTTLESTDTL
The assay can be described thus: whole-cell binding of fluorescent antagonist MRS4174 in CHO-hP2Y14R cells (flow cytometry). (In general: In flow cytometry, cells or beads pass a laser one at a time.)

In assay [1] the test system is hP2Y6R-1321N1 human astrocytoma cells. The assay can be described thus: MTT cell viability assay, hP2Y6R-1321N1 astrocytoma cells. Type of assay: cell-based. The note with it: for % survival: P2Y6R-astrocytoma, 12 h, MTT. Here is the method:
(§6) The 1321N1 astrocytoma (hP2Y6R-overexpressing) and HeLa (non-transfected) cell lines were cultured in Dulbecco’s modified Eagle’s medium (DMEM, HyClone, Logan, UT, USA) supplemented with 5% heat-inactivated fetal bovine serum (FBS, HyClone, UT, USA), 100 U/mL penicillin, and 100 µg/mL streptomycin in 5% CO2 at 37 °C. The cell viability was determined using an MTT kit (Sigma, St. Louis, MO, USA) according to the manufacturer’s instructions. Briefly, 1 × 10^4 cells were seeded in triplicate in 96-well plates. The hP2Y6R-astrocytoma and HeLa cells were treated with a P2Y6R agonist and antagonists at a range of concentrations and incubated for 12 h. The cell viability was measured at 490 nm using a SpectraMax-M5 Spectrometer (Molecular Devices, San Jose, CA, USA).
(In general: Tetrazolium dyes change colour on reduction, which living cells bring about.)

The subject of the next assay is HeLa cells. The assay can be described thus: MTT cell viability assay, HeLa cells. Particulars: for % survival: 12 h, MTT. It counts as cell-based, human. How it is done: as §6
For the next assay, the target named is T3, D5 (Homo sapiens, UniProt P21918).
T3 construct: NIMH Psychoactive Drug Screening Program (PDSP)
Put plainly: PDSP binding assay, D5.
From the text: as §1, §2, §3, §4, §5

The target in another assay is T4, H2 (Homo sapiens, UniProt P25021).
T4 construct: NIMH Psychoactive Drug Screening Program (PDSP)
Put plainly: PDSP binding assay, H2. Particulars: mean, n = 2.
From the text: as §1, §2, §3, §4, §5

Another assay addresses T5, κ-opioid receptor (KOR) (Homo sapiens, UniProt P41145).
T5 construct: NIMH Psychoactive Drug Screening Program (PDSP)
Put plainly: PDSP binding assay, κ-opioid.
From the text: as §1, §2, §3, §4, §5

A further assay deals with T6, H1 (Homo sapiens, UniProt P35367).
T6 construct: NIMH Psychoactive Drug Screening Program (PDSP)
The assay can be described thus: PDSP binding assay, H1. The note with it: Table S2, single determinations; read-out: Ki (nM), H1.
From the text: as §1, §2, §3, §4, §5

Another assay has as its target T7, D4 (Homo sapiens, UniProt P21917).
T7 construct: NIMH Psychoactive Drug Screening Program (PDSP)
The assay can be described thus: PDSP binding assay, D4. The note with it: mean, n = 2.
From the text: as §1, §2, §3, §4, §5

The target of the next assay is T8, α2B (Homo sapiens, UniProt P18089).
T8 construct: NIMH Psychoactive Drug Screening Program (PDSP)
T8 sequence (P18089 1-450): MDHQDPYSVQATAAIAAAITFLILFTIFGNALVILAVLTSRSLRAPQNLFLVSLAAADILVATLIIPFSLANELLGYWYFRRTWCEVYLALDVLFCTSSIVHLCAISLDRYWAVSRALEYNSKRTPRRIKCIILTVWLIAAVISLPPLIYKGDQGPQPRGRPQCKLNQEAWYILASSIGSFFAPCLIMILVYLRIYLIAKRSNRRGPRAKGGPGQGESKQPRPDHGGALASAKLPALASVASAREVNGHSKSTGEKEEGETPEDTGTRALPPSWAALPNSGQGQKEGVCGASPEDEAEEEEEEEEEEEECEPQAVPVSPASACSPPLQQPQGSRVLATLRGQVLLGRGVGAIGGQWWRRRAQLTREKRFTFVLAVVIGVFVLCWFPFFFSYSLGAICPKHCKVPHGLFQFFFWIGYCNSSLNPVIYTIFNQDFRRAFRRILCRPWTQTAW
The assay can be described thus: PDSP binding assay, α2B. Particulars: mean, n = 2.
From the text: as §1, §2, §3, §4, §5

Another assay concerns the target T9, D3 (Homo sapiens, UniProt P35462).
T9 construct: NIMH Psychoactive Drug Screening Program (PDSP)
The assay can be described thus: PDSP binding assay, D3. The note with it: Table S2, single determination.
From the text: as §1, §2, §3, §4, §5

The next assay addresses T10, α2A (Homo sapiens, UniProt P08913).
T10 construct: NIMH Psychoactive Drug Screening Program (PDSP)
T10 sequence (P08913 1-465): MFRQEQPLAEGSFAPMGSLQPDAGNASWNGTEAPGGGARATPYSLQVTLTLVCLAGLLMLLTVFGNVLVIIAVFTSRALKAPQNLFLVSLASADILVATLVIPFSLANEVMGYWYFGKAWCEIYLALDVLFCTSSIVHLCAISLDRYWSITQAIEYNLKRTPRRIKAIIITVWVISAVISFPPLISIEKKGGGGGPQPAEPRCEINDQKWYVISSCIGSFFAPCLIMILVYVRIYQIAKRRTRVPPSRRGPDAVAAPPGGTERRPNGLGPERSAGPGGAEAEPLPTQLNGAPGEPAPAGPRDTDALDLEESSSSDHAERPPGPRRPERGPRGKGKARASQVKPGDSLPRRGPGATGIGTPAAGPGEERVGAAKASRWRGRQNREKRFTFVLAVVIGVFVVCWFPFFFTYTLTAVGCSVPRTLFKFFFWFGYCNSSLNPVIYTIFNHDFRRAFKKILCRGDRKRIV
Put plainly: PDSP binding assay, α2A.
From the text: as §1, §2, §3, §4, §5

T3 sequence (P21918 whole entry): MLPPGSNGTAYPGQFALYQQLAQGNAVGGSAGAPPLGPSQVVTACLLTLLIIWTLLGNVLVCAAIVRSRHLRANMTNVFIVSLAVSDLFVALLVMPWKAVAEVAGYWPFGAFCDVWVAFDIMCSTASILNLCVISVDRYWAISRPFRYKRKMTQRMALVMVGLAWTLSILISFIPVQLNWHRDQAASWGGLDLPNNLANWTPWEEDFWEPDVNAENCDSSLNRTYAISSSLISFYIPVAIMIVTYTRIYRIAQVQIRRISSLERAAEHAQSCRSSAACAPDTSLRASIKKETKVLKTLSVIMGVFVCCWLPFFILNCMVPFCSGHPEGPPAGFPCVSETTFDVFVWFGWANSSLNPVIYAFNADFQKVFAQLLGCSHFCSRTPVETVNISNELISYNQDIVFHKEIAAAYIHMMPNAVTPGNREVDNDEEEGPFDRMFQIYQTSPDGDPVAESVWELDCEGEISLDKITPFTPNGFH
T6 sequence (P35367 whole entry): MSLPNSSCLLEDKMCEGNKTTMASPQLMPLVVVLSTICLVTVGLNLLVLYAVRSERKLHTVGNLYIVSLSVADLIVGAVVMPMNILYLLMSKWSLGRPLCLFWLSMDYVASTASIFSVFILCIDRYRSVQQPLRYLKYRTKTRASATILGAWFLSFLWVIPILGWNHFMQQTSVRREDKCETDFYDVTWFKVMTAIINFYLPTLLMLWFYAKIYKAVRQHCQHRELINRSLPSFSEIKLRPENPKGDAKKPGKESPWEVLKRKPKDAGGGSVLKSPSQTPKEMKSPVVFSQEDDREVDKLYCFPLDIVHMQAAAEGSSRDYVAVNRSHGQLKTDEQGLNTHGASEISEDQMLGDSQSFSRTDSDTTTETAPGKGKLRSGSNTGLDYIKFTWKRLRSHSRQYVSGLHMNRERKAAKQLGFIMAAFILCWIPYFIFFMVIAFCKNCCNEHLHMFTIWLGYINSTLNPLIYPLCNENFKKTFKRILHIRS
T5 sequence (P41145 whole entry): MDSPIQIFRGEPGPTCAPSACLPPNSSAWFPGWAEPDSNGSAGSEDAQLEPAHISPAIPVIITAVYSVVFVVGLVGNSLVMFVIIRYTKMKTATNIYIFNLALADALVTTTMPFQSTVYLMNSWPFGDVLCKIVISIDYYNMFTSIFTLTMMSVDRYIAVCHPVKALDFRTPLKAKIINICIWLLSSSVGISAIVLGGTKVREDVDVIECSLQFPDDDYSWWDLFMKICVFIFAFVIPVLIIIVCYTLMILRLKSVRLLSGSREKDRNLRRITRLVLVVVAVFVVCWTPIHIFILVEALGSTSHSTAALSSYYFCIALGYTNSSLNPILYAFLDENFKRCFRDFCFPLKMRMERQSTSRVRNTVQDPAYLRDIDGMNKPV
T4 sequence (P25021 whole entry): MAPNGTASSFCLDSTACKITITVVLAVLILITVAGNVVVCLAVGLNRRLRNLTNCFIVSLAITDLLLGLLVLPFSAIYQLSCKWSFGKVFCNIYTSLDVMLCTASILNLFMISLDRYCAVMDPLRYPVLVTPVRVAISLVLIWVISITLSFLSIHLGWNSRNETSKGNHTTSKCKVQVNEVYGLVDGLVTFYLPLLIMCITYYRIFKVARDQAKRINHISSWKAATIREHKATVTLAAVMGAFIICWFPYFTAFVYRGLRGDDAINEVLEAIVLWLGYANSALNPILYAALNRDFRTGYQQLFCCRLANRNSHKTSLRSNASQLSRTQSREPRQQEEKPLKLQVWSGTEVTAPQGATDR
T1 sequence (P14416 whole entry): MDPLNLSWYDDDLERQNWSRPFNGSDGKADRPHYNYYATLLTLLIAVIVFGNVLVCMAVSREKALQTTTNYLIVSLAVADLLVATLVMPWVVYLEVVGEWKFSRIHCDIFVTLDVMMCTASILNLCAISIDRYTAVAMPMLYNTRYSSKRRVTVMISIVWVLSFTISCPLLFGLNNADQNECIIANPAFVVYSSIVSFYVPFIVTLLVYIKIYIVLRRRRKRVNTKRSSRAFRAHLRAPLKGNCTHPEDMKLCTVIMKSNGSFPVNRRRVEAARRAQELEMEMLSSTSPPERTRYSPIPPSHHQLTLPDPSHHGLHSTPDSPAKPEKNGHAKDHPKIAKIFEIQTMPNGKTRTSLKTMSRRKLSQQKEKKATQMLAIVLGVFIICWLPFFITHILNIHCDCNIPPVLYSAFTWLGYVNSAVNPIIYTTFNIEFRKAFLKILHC
T7 sequence (P21917 whole entry): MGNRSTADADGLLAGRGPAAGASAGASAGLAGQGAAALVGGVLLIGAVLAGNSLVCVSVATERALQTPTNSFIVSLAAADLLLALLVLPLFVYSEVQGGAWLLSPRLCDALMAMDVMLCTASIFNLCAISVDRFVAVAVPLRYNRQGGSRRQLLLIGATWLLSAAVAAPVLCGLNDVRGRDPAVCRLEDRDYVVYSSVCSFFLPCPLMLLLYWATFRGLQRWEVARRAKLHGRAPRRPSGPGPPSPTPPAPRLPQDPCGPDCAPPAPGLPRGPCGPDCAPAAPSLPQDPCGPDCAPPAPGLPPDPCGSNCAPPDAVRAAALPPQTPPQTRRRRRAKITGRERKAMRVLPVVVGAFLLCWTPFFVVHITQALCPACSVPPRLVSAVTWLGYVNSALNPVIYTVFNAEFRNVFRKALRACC
T9 sequence (P35462 whole entry): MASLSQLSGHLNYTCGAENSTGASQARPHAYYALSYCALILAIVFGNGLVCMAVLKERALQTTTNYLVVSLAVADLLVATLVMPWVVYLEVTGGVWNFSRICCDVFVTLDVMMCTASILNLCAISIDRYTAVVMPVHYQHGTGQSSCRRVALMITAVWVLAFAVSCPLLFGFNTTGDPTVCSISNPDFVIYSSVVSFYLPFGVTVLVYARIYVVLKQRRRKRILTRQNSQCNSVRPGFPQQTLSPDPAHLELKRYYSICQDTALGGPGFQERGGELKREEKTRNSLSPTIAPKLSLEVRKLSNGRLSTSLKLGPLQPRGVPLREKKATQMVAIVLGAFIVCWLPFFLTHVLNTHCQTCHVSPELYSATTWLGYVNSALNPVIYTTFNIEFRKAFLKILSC

As to `CC(C)(C)OC(=O)NCCCCCCCC#Cc1ccc2c(c1)C=C([N+](=O)[O-])C(C(F)(F)F)O2` (stereo not drawn) [Compound 30, tert-Butyl (9-(3-nitro-2-(trifluoromethyl)-2H-chromen-6-yl)non-8-yn-1-yl)carbamate], the inhibitory constant (Ki) on D2 is > 10000 nM; on D5 (PDSP, mean, n = 2, read-out: Ki, D5) it was 780 nM; at D5 (Table S2, single determinations, read-out: Ki (nM), D5), 643 nM and 911 nM; at H2, 500 nM; at κ-opioid receptor (KOR) (PDSP, mean, n = 2, read-out: Ki, κ-opioid) it was 2200 nM; at κ-opioid receptor (KOR) (Table S2, single determination, read-out: Ki (nM), KOR) it was 1400 nM. The Ki is 630 nM and 366 nM on H1; 3.1 µM at D4; 170 nM on α2B; > 10000 nM on D3; 86 nM on α2A (PDSP, mean, n = 2, read-out: Ki, α2A); 80.2 nM and 90.7 nM on α2A (Table S2, single determinations, read-out: Ki (nM), Alpha2A). Moreover, the IC50 on hP2Y14R (CHO-hP2Y14, competitive binding, flow cytometer) turned out to be 21.4 ± 5.8 µM. Besides, the “fold selective compared to the hP2Y14R” value on hP2Y14R (hP2Y6R vs hP2Y14R) is 132 fold. Further, the “% survival” value came to 98% in [1] (0.05 µM); 98% in assay [1] (0.1 µM); 83% in assay [1] (0.5 µM); 77% in assay [1] (1 µM); 94% in the assay with HeLa cells (0.05 µM); 94% in the assay on HeLa cells (0.1 µM). Further, the “% survival” value with HeLa cells (0.5 µM) is reported as 87%; in the assay with HeLa cells (1 µM), 71%. The inhibition of viability in [1] (hP2Y6R-1321N1 cells, at 1 µM, 12 h exposure) is listed as 23%; in the assay on HeLa cells (at 1 µM, 12 h exposure), 29%.

As usually defined, the Ki is the dissociation constant of the complex between target and ligand, obtained from inhibition or displacement. The term IC50 denotes the midpoint of a concentration-inhibition curve. Higher therefore signals weaker potency in that assay.

The record behind these values is PMC11352859, “Functionalized Congeners of 2H-Chromene P2Y6 Receptor Antagonists” (Cells, 2024).
